# Experimental data as given in PMC6018554, “2-[2-(4-(trifluoromethyl)phenylamino)thiazol-4-yl]acetic acid (Activator-3) is a potent activator of AMPK” (Scientific Reports, 2018).
# Experiments:
# [1] = system: human recombinant α1β1γ1 AMPK γ1 mutants (R70G, R152G); test: In vitro kinase assay with mutant AMPK pulled down from HEK-293T cells; format: biochemical; conditions: 30 nM Activator-3; γ1 R70G, R152G mutants
# Description: A high binding Enzyme Immuno Assay (EIA) 96-well plate (Sigma: Cat# CLS3590) was coated with Acetyl CoA Carboxylase 2 (ACC: 175–271 amino acids) peptide, a direct substrate for AMPK, 100 ng per well (1:1000 ratio, Cat# 12–491, Upstate biotechnology) and incubated overnight at 25 °C. Reaction mixture was incubated at 30 °C for 2 h and reaction was stopped by washing the plate with 0.05% Tween 20 followed by incubation with pACC primary antibody and rabbit secondary antibody as described in cell based ELISA section. Assay buffer is composed of 10 mM DTT, 100 mM magnesium acetate, 50 μM ATP and 10 mM HEPES.
# R70 and R152 residues in AMPK γ1 subunit (pDONR223-PRKAG1: purchased from addgene, cat# plasmid#23718) are mutated to glycine using overlapping extension PCR. Subsequently, the mutants were transferred into a triple tagged destination vector (Streptavidin, Flag and Biotin; SFB-pDEST) by using gateway cloning technology. The mutant DNA was transfected into HEK-293T cells using PEI following standard procedures. After 4 h of transfection, media was changed to DMEM containing 10% FBS. Cells were lysed in TENNS lysis buffer (20 mM Tris pH:8.0, 100 mM NaCl, 1 mM EDTA, 10 mM Na2H2P2O7, 10 mM NaF, 10 mM Na3VO4, 0.5% NP40) and subjected to pull down using streptavidin beads followed by biotin elution. To protect the protein from dephosphorylation, cells were treated with 500 μM AICAR prior to lysis. This purified protein was estimated by using nanodrop and taken for in vitro kinase assay to check whether Activator-3 is binding to the mutant AMPK or not, and the activity of the mutant protein was assessed by comparing with the wild type protein activity.
# [2] = Human plasma protein binding; format: in vitro ADME; conditions: data not shown
smiles,measurement,setting,value
"O=C(O)Cc1csc(Nc2ccc(C(F)(F)F)cc2)n1 [Activator-3, 2-[2-(4-(trifluoromethyl)phenylamino)thiazol-4-yl]acetic acid]",AMPK activity of mutant proteins vs wild type,[1],significant reduction
same,fraction unbound,[2],~0.2
